According to ChEMBL document CHEMBL2074445, “Effect of organic isothiocyanates on the P-glycoprotein- and MRP1-mediated transport of daunomycin and vinblastine” (Pharm Res, 2002):

How the values were obtained:
Type in all cases: functional, cell-based
[1] = biological target: T1, ATP-dependent translocase ABCB1 (Homo sapiens, UniProt P08183); experiment: TP_TRANSPORTER: increase in Daunomycin intracellular accumulation (Daunomycin: 0.05 uM, NITC: 100 uM) in MCF-7 ADR cells; conditions: nci/adr-res
T1 sequence (P08183 whole entry): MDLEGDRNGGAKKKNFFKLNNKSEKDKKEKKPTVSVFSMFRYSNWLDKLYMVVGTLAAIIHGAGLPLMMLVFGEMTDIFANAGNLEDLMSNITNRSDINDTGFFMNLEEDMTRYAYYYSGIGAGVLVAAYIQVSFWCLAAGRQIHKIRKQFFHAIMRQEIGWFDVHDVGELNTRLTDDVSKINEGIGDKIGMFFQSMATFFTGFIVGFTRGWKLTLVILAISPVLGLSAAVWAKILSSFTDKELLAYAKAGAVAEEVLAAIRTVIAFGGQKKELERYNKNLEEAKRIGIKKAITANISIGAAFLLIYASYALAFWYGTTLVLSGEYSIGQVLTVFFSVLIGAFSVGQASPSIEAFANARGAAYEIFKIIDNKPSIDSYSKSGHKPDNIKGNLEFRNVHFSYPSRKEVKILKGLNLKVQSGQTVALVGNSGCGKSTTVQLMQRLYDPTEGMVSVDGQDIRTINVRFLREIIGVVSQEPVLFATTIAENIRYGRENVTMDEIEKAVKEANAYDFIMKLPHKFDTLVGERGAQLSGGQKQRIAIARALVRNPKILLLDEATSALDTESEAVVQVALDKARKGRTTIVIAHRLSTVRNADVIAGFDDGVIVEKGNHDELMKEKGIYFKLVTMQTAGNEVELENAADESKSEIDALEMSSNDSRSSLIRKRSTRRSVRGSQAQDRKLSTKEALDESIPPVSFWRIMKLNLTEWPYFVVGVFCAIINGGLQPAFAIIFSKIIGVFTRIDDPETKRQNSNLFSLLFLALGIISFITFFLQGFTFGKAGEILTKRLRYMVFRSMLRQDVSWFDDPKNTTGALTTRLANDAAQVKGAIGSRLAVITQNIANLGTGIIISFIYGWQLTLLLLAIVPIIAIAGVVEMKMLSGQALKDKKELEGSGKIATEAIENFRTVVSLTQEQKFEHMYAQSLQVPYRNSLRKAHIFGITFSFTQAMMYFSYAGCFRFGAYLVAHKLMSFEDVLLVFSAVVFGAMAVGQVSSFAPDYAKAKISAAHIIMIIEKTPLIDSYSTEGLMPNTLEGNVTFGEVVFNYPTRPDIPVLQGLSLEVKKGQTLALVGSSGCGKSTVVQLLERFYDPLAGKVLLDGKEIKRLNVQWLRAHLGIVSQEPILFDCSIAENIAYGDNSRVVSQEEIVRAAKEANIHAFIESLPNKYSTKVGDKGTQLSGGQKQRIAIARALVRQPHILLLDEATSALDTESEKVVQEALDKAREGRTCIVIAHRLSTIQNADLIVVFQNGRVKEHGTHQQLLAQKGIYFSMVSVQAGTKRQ

[2] = biological target: T2, Multidrug resistance-associated protein 1 (Homo sapiens, UniProt P33527); experiment: TP_TRANSPORTER: increase in Daunomycin intracellular accumulation (Daunomycin: 0.05 uM, NITC: 100 uM) in PANC-1 cells; conditions: panc-1, 100 µM
T2 sequence (P33527 whole entry): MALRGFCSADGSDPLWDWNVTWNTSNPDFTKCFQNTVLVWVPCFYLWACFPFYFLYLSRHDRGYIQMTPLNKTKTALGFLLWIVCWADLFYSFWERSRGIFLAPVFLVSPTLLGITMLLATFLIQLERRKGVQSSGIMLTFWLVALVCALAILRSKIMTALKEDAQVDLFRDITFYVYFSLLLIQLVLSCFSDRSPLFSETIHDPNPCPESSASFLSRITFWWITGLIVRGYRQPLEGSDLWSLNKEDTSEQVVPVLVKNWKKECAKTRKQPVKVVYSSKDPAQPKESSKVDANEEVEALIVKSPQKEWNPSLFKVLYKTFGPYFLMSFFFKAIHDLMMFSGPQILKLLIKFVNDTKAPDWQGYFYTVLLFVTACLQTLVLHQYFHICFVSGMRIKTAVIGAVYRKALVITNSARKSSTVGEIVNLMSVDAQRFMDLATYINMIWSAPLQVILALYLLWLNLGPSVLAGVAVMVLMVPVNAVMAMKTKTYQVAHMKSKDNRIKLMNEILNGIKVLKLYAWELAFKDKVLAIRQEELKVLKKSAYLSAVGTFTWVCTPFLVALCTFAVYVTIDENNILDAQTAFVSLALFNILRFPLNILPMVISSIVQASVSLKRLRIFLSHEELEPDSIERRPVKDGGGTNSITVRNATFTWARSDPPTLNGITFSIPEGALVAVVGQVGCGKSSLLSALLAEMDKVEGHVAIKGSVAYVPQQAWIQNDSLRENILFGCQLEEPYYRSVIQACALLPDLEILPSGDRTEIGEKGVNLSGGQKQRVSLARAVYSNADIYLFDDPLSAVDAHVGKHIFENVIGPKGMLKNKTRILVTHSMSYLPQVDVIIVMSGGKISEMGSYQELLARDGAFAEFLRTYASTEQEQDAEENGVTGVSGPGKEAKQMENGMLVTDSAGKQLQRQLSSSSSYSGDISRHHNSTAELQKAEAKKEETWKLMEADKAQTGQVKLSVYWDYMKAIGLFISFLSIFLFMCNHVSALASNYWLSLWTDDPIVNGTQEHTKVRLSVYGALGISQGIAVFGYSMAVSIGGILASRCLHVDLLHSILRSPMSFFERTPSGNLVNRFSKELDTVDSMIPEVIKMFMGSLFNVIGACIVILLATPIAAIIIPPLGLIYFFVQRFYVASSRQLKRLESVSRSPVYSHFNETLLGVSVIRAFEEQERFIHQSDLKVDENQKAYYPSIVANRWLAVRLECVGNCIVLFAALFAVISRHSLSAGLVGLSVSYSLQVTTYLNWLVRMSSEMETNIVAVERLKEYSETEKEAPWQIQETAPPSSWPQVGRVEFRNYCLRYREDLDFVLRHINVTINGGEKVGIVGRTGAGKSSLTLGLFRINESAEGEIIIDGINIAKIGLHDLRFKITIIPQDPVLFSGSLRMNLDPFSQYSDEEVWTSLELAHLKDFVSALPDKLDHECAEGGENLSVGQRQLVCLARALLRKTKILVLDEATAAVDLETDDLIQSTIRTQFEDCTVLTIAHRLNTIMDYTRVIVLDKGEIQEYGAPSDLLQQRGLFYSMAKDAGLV

[3] = biological target: T1, ATP-dependent translocase ABCB1; experiment: TP_TRANSPORTER: increase in Daunomycin intracellular accumulation (Daunomycin: 0.05 uM, Benzylisothiocyanate: 100 uM) in MCF-7/ADR cells; conditions: nci/adr-res
[4] = biological target: T2, Multidrug resistance-associated protein 1; experiment: TP_TRANSPORTER: increase in Daunomycin intracellular accumulation (Daunomycin: 0.05 uM, Phenylhexyl isothiocyanate: 100 uM) in PANC-1 cells; conditions: panc-1, 100 µM
[5] = biological target: T2, Multidrug resistance-associated protein 1; experiment: TP_TRANSPORTER: increase in Vinblastine intracellular accumulation (Vinblastine: 0.05 uM, Phenylbutyl isothiocyanate: 100 uM) in PANC-1 cells; conditions: panc-1, 100 µM
[6] = biological target: T1, ATP-dependent translocase ABCB1; experiment: TP_TRANSPORTER: increase in Vinblastine intracellular accumulation ([…], Phenylhexyl isothiocyanate: 100 uM) in MCF-7/ADR cells; conditions: nci/adr-res
[7] = biological target: T2, Multidrug resistance-associated protein 1; experiment: TP_TRANSPORTER: increase in Vinblastine intracellular accumulation (Vinblastine: 0.05 uM, Phenylhexyl isothiocyanate: 100 uM) in PANC-1 cells; conditions: panc-1, 100 µM

Molecule S=C=Nc1cccc2ccccc12 [1-NAPHTHYLISOTHIOCYANATE] has an Activity [1] of 4 fold and an Activity [2] of 3 fold.
S=C=NCc1ccccc1 [BENZYL ISOTHIOCYANATE] showed an Activity [3] of 2.5 fold.
With S=C=NCCc1ccccc1 [PHENETHYLISOTHIOCYANATE] the Activity [4] was 2 fold.
Work on S=C=NCCCCc1ccccc1 [PHENYLBUTYL ISOTHIOCYANATE] yielded an Activity [5] of 2.5 fold.
Molecule S=C=NCCCCCCc1ccccc1 [PHENYLHEXYL ISOTHIOCYANATE] has an Activity [6] of 10 fold and an Activity [7] of 3 fold.
